Data set [1] has as its target PDE8A1 (Homo sapiens, UniProt O60658, Y748F). Kind of data set: 3H-cAMP hydrolysis assay, IC50. Type of data set: biochemical.
Data set [2] addresses PDE8A1 (Homo sapiens, UniProt O60658). Kind of data set: 3H-cAMP hydrolysis assay, IC50. Format: biochemical.
Substrate in data set [3]: [H][C@@]12COP(=O)(O)O[C@@]1([H])[C@@H](O)[C@H](n1cnc3c(=O)[nH]c(N)nc31)O2
Kind of data set: purified protein. The conditions noted are these: Mn2+ ([…] MnCl2).

Sequence of PDE8A1 (Homo sapiens, UniProt O60658, Y748F) (O60658 480-820 Y748F): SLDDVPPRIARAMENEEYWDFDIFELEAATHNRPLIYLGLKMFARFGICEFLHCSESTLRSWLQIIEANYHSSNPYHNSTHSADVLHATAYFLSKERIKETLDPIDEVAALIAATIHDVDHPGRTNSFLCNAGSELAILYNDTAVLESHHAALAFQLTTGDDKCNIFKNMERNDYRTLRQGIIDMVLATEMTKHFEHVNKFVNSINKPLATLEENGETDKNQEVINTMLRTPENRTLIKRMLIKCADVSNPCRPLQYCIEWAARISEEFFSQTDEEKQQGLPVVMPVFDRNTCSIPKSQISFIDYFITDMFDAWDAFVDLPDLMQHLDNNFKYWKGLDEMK

In the case of `OCCN(CCO)c1nc(N2CCCCC2)c2nc(N(CCO)CCO)nc(N3CCCCC3)c2n1` [dipyridamole], the IC50 is 4.1 ± 0.4 µM in data set [1] and 6 ± 0.4 µM in data set [2].

B1: PDE8A1 (Homo sapiens) (protein)
chain: SLDDVPPRIARAMENEEYWDFDIFELEAATHNRPLIYLGLKMFARFGICEFLHCSESTLRSWLQIIEANYHSSNPYHNSTHSADVLHATAYFLSKERIKETLDPIDEVAALIAATIHDVDHPGRTNSFLCNAGSELAILYNDTAVLESHHAALAFQLTTGDDKCNIFKNMERNDYRTLRQGIIDMVLATEMTKHFEHVNKFVNSINKPLATLEENGETDKNQEVINTMLRTPENRTLIKRMLIKCADVSNPCRPLQYCIEWAARISEEYFSQTDEEKQQGLPVVMPVFDRNTCSIPKSQISFIDYFITDMFDAWDAFVDLPDLMQHLDNNFKYWKGLDEMK
Consider B1, for which, in data set [3], the Km turned out to be 1600 ± 100 µM.

One may read the IC50 as the concentration that gives 50% inhibition. A low value points to inhibition by little substance. The Km is the substrate concentration at which the rate is half of its maximum.

The record behind these values is paper PMC2646200 (Biochemistry, 2008).
